# Measurements reported in patent EP3884956A1, “METHODS FOR PRODUCING HEME PEROXIDASES” (Technische Universität Wien, priority 2020, dated 2021).
# Changes are numbered by the printed parent chain.
# Legend:
# Experiment in all cases: Enzyme kinetic parameters, 96-well plate assay
# Assay type in all cases: biochemical
# [1] = biological target: T1, horseradish peroxidase variant HRP N13D/N57S/P146Q/N175S/N255D/N268D/N275K (mHRP, SEQ ID NO: 4) (Armoracia rusticana, UniProt P00433, N205S/N285D/N298D/N305K/N43D/N87S/P176Q); conditions: 50 mM phosphate-citrate buffer pH 5, 30 °C; for Vmax (substrate ABTS): ABTS 0.1 - 7 mM, 1 mM hydrogen peroxide
# T1 sequence (P00433 31-338 N43D/N87S/P176Q/N205S/N285D/N298D/N305K): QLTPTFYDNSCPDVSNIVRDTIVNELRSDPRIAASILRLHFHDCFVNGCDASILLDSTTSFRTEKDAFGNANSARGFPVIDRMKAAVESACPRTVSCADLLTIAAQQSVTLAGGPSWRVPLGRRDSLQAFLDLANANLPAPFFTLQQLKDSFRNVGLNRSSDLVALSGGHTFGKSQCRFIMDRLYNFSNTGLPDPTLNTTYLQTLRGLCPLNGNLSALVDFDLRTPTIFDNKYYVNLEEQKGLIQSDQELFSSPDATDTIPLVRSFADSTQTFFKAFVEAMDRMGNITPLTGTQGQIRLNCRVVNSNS
# Method: (§1) Plant HRP Type VI-A (Cat. No.: P6782) was obtained from Sigma-Aldrich (St. Louis, MO, USA). All HRP variants produced in E. coli consisted of the sequence as set forth in SEQ ID NO: 2 with the indicated mutations unless specified otherwise.
# (§2) For measurements with 3,3',5,5'-tetramethylbenzidine (TMB) as substrate, the reaction mixture in each well of the 96-well plate contained a saturating hydrogen peroxide concentration of 1 mM and varying TMB concentrations (20 - 550 µM) in 50 mM phosphate-citrate buffer pH 5 in a final volume of 200 µL. Protein sample (5 µL) was mixed with 175 µl TMB-buffer mixture and the reaction was started with 20 µl hydrogen peroxide solution (10 mM). The increase in absorption was followed at 652 nm for 60s at 30 °C in a Tecan Infinite M200 PRO instrument. The kinetic parameters were calculated using Sigma Plot software (Systat Software INC., San Jose, CA, USA) and an extinction coefficient of ε652 = 39 mM^-1 cm^-1 (see Josephy, et al. "The horseradish peroxidase-catalyzed oxidation of 3, 5, 3', 5'-tetramethylbenzidine. Free radical and charge-transfer complex intermediates." Journal of Biological Chemistry 257.7 (1982): 3669-3675).
# (§3) The increase in absorption was followed at 420 nm for 120 s at 30 °C in a Tecan Infinite M200 PRO instrument. The kinetic parameters were calculated using Sigma Plot software (Systat Software INC., San Jose, CA, USA) and an extinction coefficient of ε420 = 36 mM^-1 cm^-1 (see Childs and Bardsley. "The steady-state kinetics of peroxidase with 2, 2'-azino-di-(3-ethyl-benzthiazoline-6-sulphonic acid) as chromogen." Biochemical Journal 145.1 (1975): 93-103).
# as §3
# [2] = biological target: T2, horseradish peroxidase variant HRP N13D/N57S/N175S/N255D/N268D (Armoracia rusticana, UniProt P00433, N205S/N285D/N298D/N43D/N87S); conditions: 50 mM phosphate-citrate buffer pH 5, 30 °C
# T2 sequence (P00433 31-338 N43D/N87S/N205S/N285D/N298D): T1 sequence (P00433 31-338 N43D/N87S/P176Q/N205S/N285D/N298D/N305K) with Q146P, K275N
# Method: as §1, §2, §3, §3
# [3] = biological target: T3, plant-derived HRP (pHRP; Plant HRP Type VI-A, horseradish peroxidase) (Armoracia rusticana, UniProt P00433); conditions: Table 19; ABTS 0.1 - 7 mM, 1 mM hydrogen peroxide, 50 mM phosphate-citrate buffer pH 5, 30 °C
# T3 sequence (P00433 31-338): T1 sequence (P00433 31-338 N43D/N87S/P176Q/N205S/N285D/N298D/N305K) with D13N, S57N, Q146P, S175N, D255N, D268N, K275N
# Method: as §1, §2, §3
# [4] = biological target: T4, wild-type HRP (rHRP, horseradish peroxidase variant C1A, SEQ ID NO: 2) (Armoracia rusticana, UniProt P00433); conditions: Table 20; TMB 20 - 550 µM, 1 mM hydrogen peroxide, 50 mM phosphate-citrate buffer pH 5, 30 °C
# T4 sequence (P00433 31-338): T1 sequence (P00433 31-338 N43D/N87S/P176Q/N205S/N285D/N298D/N305K) with D13N, S57N, Q146P, S175N, D255N, D268N, K275N
# Method: as §1, §2, §3
# [5] = Table 17, hydrogen peroxide 0.001 - 1 mM, 10 mM ABTS
# [6] = Table 17, hydrogen peroxide 0.001 - 1 mM, 10 mM ABTS, read-out: Km (substrate H2O2)
compound,measurement,setting,value
"OO [H2O2, hydrogen peroxide]",Vmax (substrate H2O2),[1]; [5],2337 ± 38 U/mg
same,kcat (substrate H2O2),[1]; [5],1344 ± 22 s⁻¹
same,Km,[1]; [6],171 ± 9 µM
same,Vmax (substrate H2O2),[2]; [5],2003 ± 14 U/mg
same,kcat (substrate H2O2),[2]; [5],1152 ± 8.3 s⁻¹
same,Km,[2]; [6],174 ± 4 µM
"CCn1c(=NN=c2sc3cc(S(=O)(=O)O)ccc3n2CC)sc2cc(S(=O)(=O)O)ccc21 [ABTS, 2,2'-azino-bis(3-ethylbenzothiazoline-6-sulfonic acid)]",Vmax (substrate ABTS),[3],1285 ± 70 U/mg
same,Vmax (substrate ABTS),[1]; Table 18,1214 ± 98 U/mg
same,Vmax (substrate ABTS),[1]; Table 19,1203 ± 96 U/mg
same,Vmax (substrate ABTS),"[2]; Table 18, ABTS 0.1 - 7 mM, 1 mM hydrogen peroxide",1224 ± 115 U/mg
"Cc1cc(-c2cc(C)c(N)c(C)c2)cc(C)c1N [TMB, 3,3',5,5'-tetramethylbenzidine]",Vmax (substrate TMB),[4],7146 ± 355 U/mg
same,kcat (substrate TMB),[4],4169 ± 207 s⁻¹
